The text below walks through data of US6979686B1, “Substituted pyrazoles as p38 kinase inhibitors” (Pharmacia Corporation, priority 2001, dated 2005).

What is called IC50 is the concentration that inhibits the measured activity by half.

T1 sequence (Q16539 whole entry): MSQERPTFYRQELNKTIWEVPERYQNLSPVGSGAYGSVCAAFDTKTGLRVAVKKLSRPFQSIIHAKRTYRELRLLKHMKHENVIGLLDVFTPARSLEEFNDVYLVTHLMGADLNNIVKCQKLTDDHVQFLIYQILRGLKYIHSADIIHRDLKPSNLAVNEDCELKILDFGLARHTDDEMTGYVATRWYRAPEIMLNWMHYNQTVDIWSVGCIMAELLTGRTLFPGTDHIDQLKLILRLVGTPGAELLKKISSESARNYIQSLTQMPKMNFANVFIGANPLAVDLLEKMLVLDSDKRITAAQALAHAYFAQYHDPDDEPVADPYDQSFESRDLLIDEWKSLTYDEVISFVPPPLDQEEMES

The first experiment addresses T1, human p38 kinase alpha (Homo sapiens, UniProt Q16539).
T1 construct: GST (N, cleaved yes); made in house; host or cells: E. coli DH10B
Put plainly: p38 kinase in vitro assay, phosphorylation of biotinylated PHAS-I with 32P-ATP. The note with it: @ 1.0 uM. Format: biochemical. Here is the method: The coding region of the human p38a cDNA was obtained by PCR-amplification from RNA isolated from the human monocyte cell line THP.1. […] Random primer, dNTP's and Superscript™ reagents were all purchased from Life-Technologies, Gaithersburg, Mass. The reaction was incubated at 42° C. for 1 hour. Amplification of p38 cDNA was performed by aliquoting 5 μl of the reverse transcriptase reaction into a 100 μl PCR reaction containing the following: 80 μl dH2O, 2 μl 50 mM DNTP's, 1 μl each of forward and reverse primers (50 pmol/μl), 10 μl of 10×buffer and 1 μl Expand™ polymerase (Boehringer Mannheim). The PCR primers incorporated BamHI sites onto the 5′ and 3′ end of the amplified fragment, and were purchased from Genosys. […] The PCR amplification was carried out in a DNA Thermal Cycler (Perkin Elmer) by repeating 30 cycles of 94° C. for 1 minute, 60° C. for 1 minute and 68° C. for 2 minutes. After amplification, excess primers and unincorporated dNTP's were removed from the amplified fragment with a Wizard™ PCR prep (Promega) and digested with BamHI (New England Biolabs). The BamHI digested fragment was ligated into BamHI digested PGEX 2T plasmid DNA (PharmaciaBiotech) using T-4 DNA ligase (New England Biolabs) as described by T. Maniatis, Molecular Cloning: A Laboratory Manual, 2nd ed. […] The ligation reaction was transformed into chemically competent E. coli DH10B cells purchased from Life-Technologies following the manufacturer's instructions. Plasmid DNA was isolated from the resulting bacterial colonies using a Promega Wizard™ miniprep kit.
Expression of Human p38a:
Overnight cultures were grown in-Luria Broth (LB) containing […] ampicillin. The next day, 500 ml of fresh LB was inoculated with 10 ml of overnight culture, and grown in a 2 liter flask at 37° C. with constant shaking until the culture reached an absorbance of 0.8 at 600 nm. Expression of the fusion protein was induced by addition of isopropyl b-D-thiogalactosidse (IPTG) to a final concentration of 0.05 mM. The cultures were shaken for three hours at room temperature, and the cells were harvested by centrifugation. The cell pellets were stored frozen until protein purification.
Purification of p38 Kinase-α:
All chemicals were from Sigma Chemical Co. unless noted. Twenty grams of E. coli cell pellet collected from five 1 L shake flask fermentations was resuspended in a volume of PBS (140 mM NaCl, 2.7 mM KCl, 10 mM Na2HPO4, 1.8 mM KH2PO4, pH 7.3) up to 200 ml. The cell suspension was adjusted to 5 mM DTT with 2 M DTT and then split equally into five 50 ml Falcon conical tubes. The cells were sonnicated (Ultrasonics model W375) with a 1 cm probe for 3×1 minutes (pulsed) on ice. Lysed cell material was removed by centrifugation (12,000×g, 15 minutes) and the clarified supernatant applied to glutathione-sepharose resin (Pharmacia).
Glutathione-sepharose Affinity Chromatography:
The resin was collected by centrifugation (600×g, 5 min) and washed with 2×150 ml PBS/1% Triton X-100, followed by 4×40 ml PBS. To cleave the p38 kinase from the GST-p38 fusion protein, the glutathione-sepharose resin was resuspended in 6 ml PBS containing 250 units thrombin protease (Pharmacia, specific activity>7500 units/mg) and mixed gently for 4 hours at room temperature. The glutathione-sepharose resin was removed by centrifugation (600×g, 5 min) and washed 2×6 ml with PBS. The PBS wash fractions and digest supernatant containing p38 kinase protein were pooled and adjusted to 0.3 mM PMSF.
Mono O Anion Exchange Chromatography:
The thrombin-cleaved p38 kinase was further purified by FPLC-anion exchange chromatography.
For the compound `CC(Oc1ccccc1)C(=O)NCCCc1[nH]nc(-c2ccc(F)cc2)c1-c1ccncc1` (stereo not shown) [Example B-1186], the “P38 alpha kinase % inhib @ conc. (uM)” value turned out to be 83.0% @.

Turning to `CCNC(=O)NCCc1[nH]nc(-c2ccc(F)cc2)c1-c1ccncc1` [Example B-1049], the “P38 alpha kinase % inhib @ conc. (uM)” value came to 67.0% @.

Regarding `NC(=O)NCCCc1[nH]nc(-c2ccc(F)cc2)c1-c1ccncc1` [Example B-1207], the “P38 alpha kinase % inhib @ conc.” value was determined as 90.0% @.

Regarding `CCOC(=O)CCNC(=O)NCCc1[nH]nc(-c2ccc(F)cc2)c1-c1ccncc1` [Example B-0947], the “P38 alpha kinase % inhib @ conc. (uM)” value is 69.0% @.

Consider `CC(C)C(=O)NCCc1[nH]nc(-c2ccc(F)cc2)c1-c1ccncc1` [Example B-0983], for which the “P38 alpha kinase % inhib @ conc. (uM)” value came out at 75.0% @.

On to `O=S(=O)(NCCCc1[nH]nc(-c2ccc(F)cc2)c1-c1ccncc1)c1ccccc1` [Example B-1191], for which the “P38 alpha kinase % inhib @ conc. (uM)” value is 74.0% @.

As to `O=C(NCCc1[nH]nc(-c2ccc(F)cc2)c1-c1ccncc1)c1ccno1` [Example B-0992], the “P38 alpha kinase % inhib @ conc. (uM)” value is given as 77.0% @.

The experiment is the same for the next values; noted with them: @ 10.0 uM.
On to `COc1ccc(OC)c(NC(=O)Cn2nc(-c3ccc(F)cc3)c(-c3ccncc3)c2C)c1` [Example B-2431], for which the “P38 alpha kinase IC50, uM or % inhib @ conc. (uM): % inhib” value (“P38 alpha kinase IC50 … % inhib” below) worked out at 85.0% 2.

Take `CCOC(=O)CN(Cc1ccccn1)C(=O)Cn1nc(-c2ccc(F)cc2)c(-c2ccncc2)c1C` [Example B-2390]: the “P38 alpha kinase IC50 … % inhib” value was 34.0% @.

For the compound `Cc1c(-c2ccncc2)c(-c2ccc(F)cc2)nn1CC(=O)Nc1ccccc1` [Example B-2416], the “P38 alpha kinase IC50 … % inhib” value was determined as 85.0% @.

Consider `CCCC(=O)COC(=O)NCc1[nH]nc(-c2ccc(F)cc2)c1-c1ccncc1` [Example B-0177], for which the “P38 alpha kinase % inhib @ conc.” value turned out to be 70.0% @.

Regarding `Cc1c(-c2ccncc2)c(-c2ccc(F)cc2)nn1CC(=O)Nc1ccccc1Cl` [Example B-2422], the “P38 alpha kinase IC50 … % inhib” value amounted to 90.0% @.

In the case of `Cc1c(-c2ccncc2)c(-c2ccc(F)cc2)nn1CC(=O)N(C)CCc1ccccc1` [Example B-2376], the “P38 alpha kinase % inhib @ conc.” value stood at 32.0% @.

`Cc1c(-c2ccncc2)c(-c2ccc(F)cc2)nn1CC(=O)Nc1c(Cl)cccc1Cl` [Example B-2421]: the “P38 alpha kinase IC50 … % inhib” value is 89.0% 2.

Regarding `Cc1c(-c2ccncc2)c(-c2ccc(F)cc2)nn1CC(=O)NC1CCN(Cc2ccccc2)C1` (stereo not shown) [Example B-2338], the “P38 alpha kinase % inhib @ conc.” value is on record as 73.0% @.

The same experiment, now with this note: in vitro P38-alpha kinase inhibition; read-out: P38 alpha kinase IC50.
In the case of `O=C(NCCc1[nH]nc(-c2ccc(F)cc2)c1-c1ccncc1)c1cc(F)ccc1F` [Example B-1148], the IC50 was 430 nM.

`O=C(NC(Cc1ccccc1)c1[nH]nc(-c2ccc(F)cc2)c1-c1ccncc1)C1CCC1` (stereo not shown) [Example B-0804]: the IC50 worked out at 300 nM.

`CC(=O)OC(C)(C)C(=O)NC(Cc1ccccc1)c1[nH]nc(-c2ccc(F)cc2)c1-c1ccncc1` (stereo not shown) [Example B-0834]: the IC50 was determined as 1250 nM.

Turning to `N#Cc1ccccc1S(=O)(=O)NCCc1[nH]nc(-c2ccc(F)cc2)c1-c1ccncc1` [Example B-1078], the half-maximal inhibitory concentration (IC50) came out at 260 nM.

For `O=C(NC(Cc1ccccc1)c1[nH]nc(-c2ccc(F)cc2)c1-c1ccncc1)c1ccccc1I` (stereo not shown) [Example B-0798], the IC50 was found to be 1730 nM.

For the compound `Cc1cccc(C)c1NC(=O)NC(C)c1[nH]nc(-c2ccc(F)cc2)c1-c1ccncc1` (stereo not shown) [Example B-0588], the IC50 came to 12800 nM.

As to `O=S(=O)(NCCc1[nH]nc(-c2ccc(F)cc2)c1-c1ccncc1)c1ccc(-c2ccccc2)cc1` [Example B-1109], the IC50 is 54 nM.

`Cc1c(C)c(S(=O)(=O)NCCc2[nH]nc(-c3ccc(F)cc3)c2-c2ccncc2)c(C)c2c1OC(C)(C)CC2` [Example B-1110]: the IC50 came to 470 nM.

On to `CC(NC(=O)N(C)C)c1[nH]nc(-c2ccc(F)cc2)c1-c1ccncc1` (stereo not shown) [Example B-0584], for which the IC50 was 660 nM.

Turning to `Cc1cc(C)c(S(=O)(=O)NCCc2[nH]nc(-c3ccc(F)cc3)c2-c2ccncc2)c(C)c1` [Example B-1067], the IC50 was 1600 nM.

`CCCS(=O)(=O)NC(C)c1[nH]nc(-c2ccc(F)cc2)c1-c1ccncc1` (stereo not shown) [Example B-0570]: the IC50 was 270 nM.

On to `O=C(NC(Cc1ccccc1)c1[nH]nc(-c2ccc(F)cc2)c1-c1ccncc1)C1CCCN1` (stereo not shown) [Example B-0750], for which the IC50 is 920 nM.

For the compound `CCCOC(=O)NC(C)c1[nH]nc(-c2ccc(F)cc2)c1-c1ccncc1` (stereo not shown) [Example B-0602], the IC50 was 970 nM.

Consider `CC(NS(=O)(=O)C(F)(F)F)c1[nH]nc(-c2ccc(F)cc2)c1-c1ccncc1` (stereo not shown) [Example B-0568], for which the IC50 came out at 1220 nM.

Regarding `Cc1c(Cl)cccc1S(=O)(=O)NC(C)c1[nH]nc(-c2ccc(F)cc2)c1-c1ccncc1` (stereo not shown) [Example B-0624], the IC50 turned out to be 85 nM.

With `CCCCS(=O)(=O)NC(Cc1ccccc1)c1[nH]nc(-c2ccc(F)cc2)c1-c1ccncc1` (stereo not shown) [Example B-0716], the half-maximal inhibitory concentration (IC50) is 4600 nM.

Turning to `CC(=O)OCC(=O)NC(Cc1ccccc1)c1[nH]nc(-c2ccc(F)cc2)c1-c1ccncc1` (stereo not shown) [Example B-0829], the IC50 was found to be 610 nM.

In the case of `O=C(NC(Cc1ccccc1)c1[nH]nc(-c2ccc(F)cc2)c1-c1ccncc1)N1CCOCC1` (stereo not shown) [Example B-0727], the IC50 was 510 nM.

On to `CC(=O)Nc1nc(C)c(S(=O)(=O)NC(C)c2[nH]nc(-c3ccc(F)cc3)c2-c2ccncc2)s1` (stereo not shown) [Example B-0607], for which the IC50 was 2790 nM.

As for `CCCCOc1ccc(S(=O)(=O)NC(C)c2[nH]nc(-c3ccc(F)cc3)c2-c2ccncc2)cc1` (stereo not shown) [Example B-0633], the IC50 came out at 600 nM.

As for `O=S(=O)(NC(Cc1ccccc1)c1[nH]nc(-c2ccc(F)cc2)c1-c1ccncc1)c1ccc(F)cc1` (stereo not shown) [Example B-0752], the IC50 worked out at 330 nM.

Consider `O=C(NC(Cc1ccccc1)c1[nH]nc(-c2ccc(F)cc2)c1-c1ccncc1)C1CCCN1` (stereo not shown) [Example B-0749], for which the IC50 was determined as 4400 nM.

Still in this experiment, the particulars now being: in vitro P38-alpha kinase; read-out: P38 alpha kinase IC50.
As for `CCCCOc1ccc(S(=O)(=O)NCCCc2[nH]nc(-c3ccc(F)cc3)c2-c2ccncc2)cc1` [Example B-1261], the IC50 was determined as 740 nM.

Consider `COc1cc(CNC(=O)Cn2nc(-c3ccc(F)cc3)c(-c3ccncc3)c2C)cc(OC)c1` [Example B-2305], for which the IC50 stood at 540 nM.

For the compound `C[C@@H](NS(=O)(=O)/C=C/c1ccccc1)c1[nH]nc(-c2ccc(F)cc2)c1-c1ccncc1` [Example B-0388], the IC50 was below 100 nM.

With `Cc1cccc(C(=O)NCCCc2[nH]nc(-c3ccc(F)cc3)c2-c2ccncc2)c1` [Example B-1344], the IC50 was 14 nM.

Regarding `Cc1ccc(C(=O)N2CCC(c3[nH]nc(-c4ccc(F)cc4)c3-c3ccncc3)CC2)cc1` [Example B-1371], the IC50 is 60 nM.

As for `O=S(=O)(NCCCc1[nH]nc(-c2ccc(F)cc2)c1-c1ccncc1)c1ccc(-c2ccccn2)s1` [Example B-1288], the IC50 amounted to 150 nM.

In the case of `O=C(NCCCc1[nH]nc(-c2ccc(F)cc2)c1-c1ccncc1)c1ccc(F)c(C(F)(F)F)c1` [Example B-1341], the IC50 turned out to be 420 nM.

For the compound `O=S(=O)(NCCCc1[nH]nc(-c2ccc(F)cc2)c1-c1ccncc1)c1ccc(Cl)c(Cl)c1` [Example B-1270], the IC50 stood at 470 nM.

As to `O=C(c1ccncc1)N1CCC(c2[nH]nc(-c3ccc(F)cc3)c2-c2ccncc2)CC1` [Example B-1373], the IC50 stood at 16 nM.

As for `O=C(O)c1ccccc1S(=O)(=O)NCCCc1[nH]nc(-c2ccc(F)cc2)c1-c1ccncc1` [Example B-1242], the IC50 came out at 80 nM.

In the case of `COc1ccc(C)c(S(=O)(=O)N2CCC(c3[nH]nc(-c4ccc(F)cc4)c3-c3ccncc3)CC2)c1` [Example B-1447], the IC50 is 500 nM.

For `CNC(=O)N1CCC(c2[nH]nc(-c3ccc(F)cc3)c2-c2ccncc2)CC1` [Example B-1378], the IC50 is 20 nM.
